Measurements: patent US12297194B2, “N2-phenylpyrimidine-2,4-diamine compounds, and preparation methods and methods of use thereof” (BRIDGE BIOTHERAPEUTICS, INC., priority 2021, dated 2025)

Legend:
Type in all cases: cell-based, murine
[1] = biological target: Ba/F3 EGFR Del19/C797S mutants (Homo sapiens, UniProt P00533, C797S, cells depend on it, form not given); assay: CellTiter-Glo cell viability, Ba/F3 EGFR Del19/C797S cells; details: 72 hours, read-out: Ba/F3 EGFR mutant cell (IC50, nM) D/C
Experimental: (§1) In order to evaluate an inhibitory ability on wild-type Ba/F3 EGFR and Ba/F3 EGFR mutations in Ba/F3 cell lines by the compounds of Formula 1, the experiment was carried out as described below.
(§2) The measurement of activities on Ba/F3 cells harboring wild-type EGFR and EGFR mutants by the compounds of the present invention were determined utilizing the CELLTITER-GLO™ system from Promega, as follows. The CELLTITER-GLO™ assay is a method for measuring the ATP present in cells to determine the cell viability. Ba/F3 EGFR wild-type and Ba/F3 EGFR L858R/C797S (L/C), Ba/F3 EGFR L858R/T790M/C797S (L/T/C), Ba/F3 EGFR Del19/T790M (D/T), Ba/F3 EGFR Del19/C797S (D/C), Ba/F3 EGFR Del19/T790M/C797S (D/T/C) mutant cell lines were maintained in RPMI1640, containing […], 1% penicillin-streptomycin, […] puromycin. Cells were grown in a humidified incubator at 37° C. with […].
(§3) The analysis of an EGFR inhibitory activity by the compounds was carried out in accordance with the analysis reaction recipe below.
(§4) 2500 cells/90 μL were seeded in 96 well cell culture plate, and after 24 hours, treated with the compounds represented by Formula 1 in concentrations of 0, 0.3, 0.9, 2.7, 8.2, 24.7, 74.1, 222.2, 666.7, 2000 (nM). After the reaction of 72 hours, the plate was incubated for 30 minutes at ambient temperature, and then, was further treated with 100 μL of the CELLTITER-GLO™ reagent and was shaken for 10 minutes at ambient temperature. Finally, measurement of the luminescence values were obtained using the SPECTRAMAX™ iD3 (Molecular Devices), and the IC50 values of the compound were analyzed using the GraphPad Prism program (version 9.0.2, GraphPad Software, Inc.).

[2] = biological target: Ba/F3 EGFR Wild-type (Homo sapiens, UniProt P00533); assay: CellTiter-Glo cell viability, Ba/F3 EGFR wild-type cells; details: 72 hours, read-out: Ba/F3 EGFR mutant cell (IC50, nM) WT
Experimental: as §1, §2, §3, §4

[3] = biological target: Ba/F3 EGFR L858R/C797S mutants (Homo sapiens, UniProt P00533, C797S/L858R, cells depend on it); assay: CellTiter-Glo cell viability, Ba/F3 EGFR L858R/C797S cells; details: 72 hours, read-out: Ba/F3 EGFR mutant cell (IC50, nM) L/C
Experimental: as §1, §2, §3, §4

[4] = biological target: Ba/F3 EGFR L858R/T790M/C797S mutants (Homo sapiens, UniProt P00533, T790M/C797S/L858R, cells depend on it); assay: CellTiter-Glo cell viability, Ba/F3 EGFR L858R/T790M/C797S cells; details: 72 hours, read-out: Ba/F3 EGFR mutant cell (IC50, nM) L/T/C
Experimental: as §1, §2, §3, §4

[5] = biological target: Ba/F3 EGFR Del19/T790M/C797S mutants (Homo sapiens, UniProt P00533, T790M/C797S, cells depend on it, form not given); assay: CellTiter-Glo cell viability, Ba/F3 EGFR Del19/T790M/C797S cells; details: 72 hours, read-out: Ba/F3 EGFR mutant cell (IC50, nM) D/T/C
Experimental: as §1, §2, §3, §4

[6] = biological target: Ba/F3 EGFR Del19/T790M mutants (Homo sapiens, UniProt P00533, T790M, cells depend on it, form not given); assay: CellTiter-Glo cell viability, Ba/F3 EGFR Del19/T790M cells; details: 72 hours, read-out: Ba/F3 EGFR mutant cell (IC50, nM) D/T
Experimental: as §1, §2, §3, §4

Chain of Ba/F3 EGFR Wild-type (P00533 whole entry, change not shown): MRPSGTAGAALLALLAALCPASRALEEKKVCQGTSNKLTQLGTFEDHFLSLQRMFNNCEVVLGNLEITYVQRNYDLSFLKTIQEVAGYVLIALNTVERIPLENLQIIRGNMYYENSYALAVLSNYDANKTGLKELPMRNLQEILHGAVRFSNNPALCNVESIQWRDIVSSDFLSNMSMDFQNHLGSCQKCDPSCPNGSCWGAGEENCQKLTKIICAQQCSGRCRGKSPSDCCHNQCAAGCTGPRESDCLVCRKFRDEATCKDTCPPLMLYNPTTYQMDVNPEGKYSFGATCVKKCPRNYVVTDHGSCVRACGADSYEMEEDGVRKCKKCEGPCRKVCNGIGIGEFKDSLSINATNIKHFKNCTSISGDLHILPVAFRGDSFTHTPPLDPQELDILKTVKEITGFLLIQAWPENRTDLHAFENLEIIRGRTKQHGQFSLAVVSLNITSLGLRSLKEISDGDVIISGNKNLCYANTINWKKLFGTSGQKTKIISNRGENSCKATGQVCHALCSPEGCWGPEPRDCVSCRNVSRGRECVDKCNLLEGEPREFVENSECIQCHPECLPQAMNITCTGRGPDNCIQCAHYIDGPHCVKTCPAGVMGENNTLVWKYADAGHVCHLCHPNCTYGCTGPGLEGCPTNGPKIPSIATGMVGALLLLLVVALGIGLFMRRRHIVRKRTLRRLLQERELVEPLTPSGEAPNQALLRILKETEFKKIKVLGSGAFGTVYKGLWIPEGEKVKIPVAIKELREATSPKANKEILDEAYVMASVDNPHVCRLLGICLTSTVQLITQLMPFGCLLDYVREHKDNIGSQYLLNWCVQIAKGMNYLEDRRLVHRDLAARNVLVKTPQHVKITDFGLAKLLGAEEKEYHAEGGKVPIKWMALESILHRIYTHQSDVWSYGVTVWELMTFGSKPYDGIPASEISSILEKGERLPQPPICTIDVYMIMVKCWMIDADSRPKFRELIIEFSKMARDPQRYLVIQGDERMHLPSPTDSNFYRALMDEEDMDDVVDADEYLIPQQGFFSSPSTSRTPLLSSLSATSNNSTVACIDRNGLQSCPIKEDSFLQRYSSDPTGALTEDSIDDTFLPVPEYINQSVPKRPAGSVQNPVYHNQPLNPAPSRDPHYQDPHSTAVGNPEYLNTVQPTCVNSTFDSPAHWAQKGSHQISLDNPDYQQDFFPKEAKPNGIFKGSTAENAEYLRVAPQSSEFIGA
Chain of Ba/F3 EGFR Del19/C797S mutants (P00533 with tags, fused parts or gaps DEL746-750/C797S, form open): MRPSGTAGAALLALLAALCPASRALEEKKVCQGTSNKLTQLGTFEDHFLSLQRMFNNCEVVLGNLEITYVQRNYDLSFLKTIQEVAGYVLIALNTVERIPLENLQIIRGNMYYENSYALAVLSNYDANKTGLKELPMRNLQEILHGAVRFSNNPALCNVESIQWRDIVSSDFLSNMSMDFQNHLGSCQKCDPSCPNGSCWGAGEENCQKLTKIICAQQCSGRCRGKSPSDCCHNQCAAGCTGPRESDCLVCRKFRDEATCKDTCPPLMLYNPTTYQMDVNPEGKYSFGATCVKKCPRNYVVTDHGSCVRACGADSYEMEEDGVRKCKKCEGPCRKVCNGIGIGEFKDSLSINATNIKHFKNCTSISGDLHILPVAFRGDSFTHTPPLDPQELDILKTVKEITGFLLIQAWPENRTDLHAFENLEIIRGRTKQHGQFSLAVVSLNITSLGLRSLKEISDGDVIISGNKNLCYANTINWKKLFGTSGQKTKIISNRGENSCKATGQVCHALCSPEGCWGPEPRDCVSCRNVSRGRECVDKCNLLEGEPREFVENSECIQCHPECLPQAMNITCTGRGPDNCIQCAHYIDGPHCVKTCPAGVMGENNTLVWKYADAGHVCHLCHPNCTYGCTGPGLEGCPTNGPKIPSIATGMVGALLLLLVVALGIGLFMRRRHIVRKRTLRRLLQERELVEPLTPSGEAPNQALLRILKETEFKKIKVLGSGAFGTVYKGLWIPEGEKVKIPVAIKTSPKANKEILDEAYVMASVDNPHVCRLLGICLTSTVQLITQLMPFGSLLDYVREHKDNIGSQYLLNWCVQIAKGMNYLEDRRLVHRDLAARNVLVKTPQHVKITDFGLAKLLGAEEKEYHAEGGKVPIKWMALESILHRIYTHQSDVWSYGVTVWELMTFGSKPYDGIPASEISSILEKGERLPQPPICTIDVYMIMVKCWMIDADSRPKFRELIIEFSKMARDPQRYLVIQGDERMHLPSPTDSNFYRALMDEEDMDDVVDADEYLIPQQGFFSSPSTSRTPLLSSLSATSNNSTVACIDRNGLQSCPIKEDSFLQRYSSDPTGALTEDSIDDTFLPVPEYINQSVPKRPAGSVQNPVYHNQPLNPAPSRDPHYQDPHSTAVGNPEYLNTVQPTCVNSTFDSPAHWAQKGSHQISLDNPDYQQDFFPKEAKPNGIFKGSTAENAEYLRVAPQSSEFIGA
Chain of Ba/F3 EGFR Del19/T790M mutants (P00533 with tags, fused parts or gaps DEL746-750/T790M, form open): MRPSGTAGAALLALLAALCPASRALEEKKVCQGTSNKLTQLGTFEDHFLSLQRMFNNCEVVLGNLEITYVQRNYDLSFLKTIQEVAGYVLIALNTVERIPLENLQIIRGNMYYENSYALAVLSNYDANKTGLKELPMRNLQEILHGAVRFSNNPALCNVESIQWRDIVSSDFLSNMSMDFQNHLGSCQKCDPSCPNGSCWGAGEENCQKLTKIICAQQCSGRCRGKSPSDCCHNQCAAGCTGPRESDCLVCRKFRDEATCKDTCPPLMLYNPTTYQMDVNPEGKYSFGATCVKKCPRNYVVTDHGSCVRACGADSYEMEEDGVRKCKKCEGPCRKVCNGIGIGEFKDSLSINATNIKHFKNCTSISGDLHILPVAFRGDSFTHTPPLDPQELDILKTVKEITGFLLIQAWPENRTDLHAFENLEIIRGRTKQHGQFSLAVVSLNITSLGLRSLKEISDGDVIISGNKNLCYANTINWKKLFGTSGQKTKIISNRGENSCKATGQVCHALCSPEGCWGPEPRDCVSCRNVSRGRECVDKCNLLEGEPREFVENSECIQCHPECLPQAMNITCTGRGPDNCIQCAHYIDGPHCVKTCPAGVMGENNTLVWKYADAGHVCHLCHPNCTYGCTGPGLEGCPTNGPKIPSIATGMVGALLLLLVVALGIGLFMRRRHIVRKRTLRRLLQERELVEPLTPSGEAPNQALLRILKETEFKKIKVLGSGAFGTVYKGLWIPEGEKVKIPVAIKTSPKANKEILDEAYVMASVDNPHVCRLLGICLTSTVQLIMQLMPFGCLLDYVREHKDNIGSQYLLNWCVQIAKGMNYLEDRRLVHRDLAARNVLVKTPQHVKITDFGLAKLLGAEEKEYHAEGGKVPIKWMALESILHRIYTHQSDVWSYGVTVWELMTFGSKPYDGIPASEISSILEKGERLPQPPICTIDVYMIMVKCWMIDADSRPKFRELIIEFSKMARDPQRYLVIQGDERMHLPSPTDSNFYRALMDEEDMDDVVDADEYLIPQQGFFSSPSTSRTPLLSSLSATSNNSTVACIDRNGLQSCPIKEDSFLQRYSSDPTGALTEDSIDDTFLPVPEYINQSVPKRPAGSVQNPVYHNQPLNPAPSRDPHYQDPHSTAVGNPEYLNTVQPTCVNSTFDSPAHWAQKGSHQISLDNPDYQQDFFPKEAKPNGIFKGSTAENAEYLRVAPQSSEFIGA
Chain of Ba/F3 EGFR Del19/T790M/C797S mutants (P00533 with tags, fused parts or gaps DEL746-750/T790M/C797S, form open): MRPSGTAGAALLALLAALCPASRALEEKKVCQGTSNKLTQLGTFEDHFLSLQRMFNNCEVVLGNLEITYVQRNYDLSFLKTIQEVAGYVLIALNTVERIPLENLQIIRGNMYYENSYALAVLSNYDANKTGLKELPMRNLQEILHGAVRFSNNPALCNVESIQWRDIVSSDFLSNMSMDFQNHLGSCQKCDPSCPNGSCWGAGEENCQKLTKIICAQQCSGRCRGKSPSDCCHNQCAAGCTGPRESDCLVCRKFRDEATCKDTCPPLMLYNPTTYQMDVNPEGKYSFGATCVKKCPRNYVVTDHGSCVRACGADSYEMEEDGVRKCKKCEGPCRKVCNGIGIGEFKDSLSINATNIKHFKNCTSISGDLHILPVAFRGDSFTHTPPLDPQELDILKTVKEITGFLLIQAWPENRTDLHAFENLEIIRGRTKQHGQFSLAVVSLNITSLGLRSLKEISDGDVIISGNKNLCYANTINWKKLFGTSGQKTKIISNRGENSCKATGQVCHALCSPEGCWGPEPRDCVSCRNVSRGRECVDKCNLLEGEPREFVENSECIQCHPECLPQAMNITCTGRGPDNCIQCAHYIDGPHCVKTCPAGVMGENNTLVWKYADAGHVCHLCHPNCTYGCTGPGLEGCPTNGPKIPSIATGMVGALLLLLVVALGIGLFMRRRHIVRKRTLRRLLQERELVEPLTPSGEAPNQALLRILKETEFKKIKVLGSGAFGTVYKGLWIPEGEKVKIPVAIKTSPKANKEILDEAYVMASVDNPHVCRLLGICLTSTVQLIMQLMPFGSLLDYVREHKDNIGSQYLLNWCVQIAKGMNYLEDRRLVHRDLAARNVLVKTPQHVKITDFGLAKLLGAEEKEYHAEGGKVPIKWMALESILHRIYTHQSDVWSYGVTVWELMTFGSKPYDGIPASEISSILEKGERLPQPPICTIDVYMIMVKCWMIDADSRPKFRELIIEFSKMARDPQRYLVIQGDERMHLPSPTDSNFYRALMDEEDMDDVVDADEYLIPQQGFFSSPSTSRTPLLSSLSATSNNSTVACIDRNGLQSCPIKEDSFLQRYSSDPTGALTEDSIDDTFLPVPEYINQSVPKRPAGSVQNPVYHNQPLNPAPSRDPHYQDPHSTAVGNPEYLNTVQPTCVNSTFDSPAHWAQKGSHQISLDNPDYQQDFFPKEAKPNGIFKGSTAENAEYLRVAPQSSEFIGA

Structure (SMILES): CCc1cc(Nc2ncc(Br)c(Nc3ccc4c(c3N(C)S(C)(=O)=O)OCCO4)n2)c(OC)cc1N1CCC(N2CCN(C)CC2)CC1 [Example C28, N-(6-((5-bromo-2-((5-ethyl-2-methoxy-4-(4-(4-methylpiperazin-1-yl)piperidin-1-yl)phenyl)amino)pyrimidin-4-yl)amino)-2,3-dihydrobenzo[b][1,4]dioxin-5-yl)-N-methylmethanesulfonamide]
- GI50 [1]: 7 nM
- GI50 [2]: 699 nM
- GI50 [3]: 68 nM
- GI50 [4]: 13 nM
- GI50 [5]: 10 nM
- GI50 [6]: 10 nM

Structure (SMILES): CCc1cc(Nc2ncc(Cl)c(Nc3ccc4nccnc4c3NS(C)(=O)=O)n2)c(OC)cc1N1CCC(N2CCN(C)CC2)CC1 [Example A2, N-(6-((5-chloro-2-((5-ethyl-2-methoxy-4-(4-(4-methylpiperazin-1-yl)piperidin-1-yl)phenyl)amino)pyrimidin-4-yl)amino)quinoxalin-5-yl)methanesulfonamide]
- GI50 [1]: 12 nM
- GI50 [2]: 381 nM
- GI50 [3]: 26 nM
- GI50 [4]: 9 nM
- GI50 [5]: 4 nM
- GI50 [6]: 4 nM

Structure (SMILES): CCS(=O)(=O)Nc1cc(OC)ccc1Nc1nc(Nc2cc(C)c(N3CCC(N4CCN(C)CC4)CC3)cc2OC)ncc1Cl [Example C17, N-(2-((5-chloro-2-((2-methoxy-5-methyl-4-(4-(4-methylpiperazin-1-yl)piperidin-1-yl)phenyl)amino)pyrimidin-4-yl)amino)-5-methoxyphenyl)ethanesulfonamide]
- GI50 [1]: 9 nM
- GI50 [2]: 655 nM
- GI50 [3]: 52 nM
- GI50 [4]: 40 nM
- GI50 [5]: 14 nM
- GI50 [6]: 7 nM

Structure (SMILES): CCCc1cc(Nc2ncc(Cl)c(Nc3cccc(OC)c3NS(C)(=O)=O)n2)c(OC)cc1N1CCC(N2CCOCC2)CC1 [Example C23, N-(2-((5-chloro-2-((2-methoxy-4-(4-morpholinopiperidin-1-yl)-5-propylphenyl)amino)pyrimidin-4-yl)amino)-6-methoxyphenyl)methanesulfonamide]
- GI50 [1]: 14 nM
- GI50 [2]: 1680 nM
- GI50 [3]: 72 nM
- GI50 [4]: 137 nM
- GI50 [5]: 10 nM
- GI50 [6]: 30 nM

Structure (SMILES): COc1cc(N2CC[C@H](N3CCN(C)CC3)[C@H](F)C2)ccc1Nc1ncc(Cl)c(Nc2ccc3nccnc3c2NS(C)(=O)=O)n1 [Example A35, N-(6-((5-chloro-2-((4-((3R,4S)-3-fluoro-4-(4-methylpiperazin-1-yl)piperidin-1-yl)-2-methoxyphenyl)amino)pyrimidin-4-yl)amino)quinoxalin-5-yl)methane sulfonamide]
- GI50 [1]: 145 nM
- GI50 [2]: 576 nM
- GI50 [3]: 335 nM
- GI50 [4]: 659 nM
- GI50 [5]: 272 nM
- GI50 [6]: 219 nM

Structure (SMILES): CCc1cc(Nc2ncc(Br)c(Nc3ccc4nccnc4c3N(C)S(C)(=O)=O)n2)c(OC)cc1N1CCC(N2CC3CCC2CN3C)CC1 (stereo not shown) [Example A48, N-(6-((5-bromo-2-((5-ethyl-2-methoxy-4-(4-(5-methyl-2,5-diazabicyclo[2.2.2]octan-2-yl)piperidin-1-yl)phenyl)amino)pyrimidin-4-yl)amino)quinoxalin-5-yl)-N-methylmethanesulfonamide]
- GI50 [1]: 6 nM
- GI50 [2]: 601 nM
- GI50 [3]: 112 nM
- GI50 [4]: 28 nM
- GI50 [5]: 17 nM
- GI50 [6]: 9 nM

Structure (SMILES): COC(=O)Nc1c(Nc2nc(Nc3ccc(C4CCNCC4)cc3OC)ncc2Cl)ccc2nccnc12 [Example D4, methyl (6-((5-chloro-2-((2-methoxy-4-(piperidin-4-yl)phenyl)amino)pyrimidin-4-yl)amino)quinoxalin-5-yl)carbamate]
- GI50 [1]: 746 nM
- GI50 [2]: > 2000 nM
- GI50 [3]: 1570 nM
- GI50 [4]: > 2000 nM
- GI50 [5]: 870 nM
- GI50 [6]: 694 nM

Structure (SMILES): CCc1cc(Nc2ncc(Br)c(Nc3ccc4nccnc4c3N(C)S(C)(=O)=O)n2)c(OC)cc1N1CCC(N(C)C)CC1 [Example B14, N-(6-((5-bromo-2-((4-(4-(dimethylamino)piperidin-1-yl)-5-ethyl-2-methoxyphenyl)amino)pyrimidin-4-yl)amino)quinoxalin-5-yl)-N-methylmethanesulfonamide]
- GI50 [1]: 6 nM
- GI50 [2]: 427 nM
- GI50 [3]: 41 nM
- GI50 [4]: 23 nM
- GI50 [5]: 8 nM
- GI50 [6]: 3 nM

Structure (SMILES): COc1cc(N2CCC(N(C)C)CC2)c(C)cc1Nc1ncc(Br)c(Nc2cccc(OC)c2NS(C)(=O)=O)n1 [Example C3, N-(2-((5-bromo-2-((4-(4-(dimethylamino)piperidin-1-yl)-2-methoxy-5-methylphenyl)amino)pyrimidin-4-yl)amino)-6-methoxyphenyl)methanesulfonamide]
- GI50 [1]: 60 nM
- GI50 [2]: 288 nM
- GI50 [3]: 113 nM
- GI50 [4]: 23 nM
- GI50 [5]: 92 nM
- GI50 [6]: 17 nM

Structure (SMILES): CCc1cc(Nc2ncc(Br)c(Nc3ccc4nccnc4c3N(C)S(C)(=O)=O)n2)c(OC)cc1N1CCC(N2CCOCC2)CC1 [Example A39, N-(6-((5-bromo-2-((5-ethyl-2-methoxy-4-(4-morpholinopiperidin-1-yl)phenyl)amino)pyrimidin-4-yl)amino)quinoxalin-5-yl)-N-methylmethanesulfonamide]
- GI50 [1]: 8 nM
- GI50 [2]: 779 nM
- GI50 [3]: 61 nM
- GI50 [4]: 35 nM
- GI50 [5]: 8 nM
- GI50 [6]: 4 nM

Structure (SMILES): COc1cc(C2CCN(C(C)=O)CC2)ccc1Nc1ncc(Cl)c(Nc2ccc3nccnc3c2NS(C)(=O)=O)n1 [Example B8, N-(6-((2-((4-(1-acetylpiperidin-4-yl)-2-methoxyphenyl)amino)-5-chloropyrimidin-4-yl)amino)quinoxalin-5-yl)methanesulfonamide]
- GI50 [1]: 320 nM
- GI50 [2]: 729 nM
- GI50 [3]: 554 nM
- GI50 [4]: 861 nM
- GI50 [5]: 292 nM
- GI50 [6]: 424 nM

Structure (SMILES): CCc1cc(Nc2ncc(Cl)c(Nc3ccc(OC)c(OC)c3N(C)S(C)(=O)=O)n2)c(OC)cc1N1CCC(N2CCOCC2)CC1 [Example C32, N-(6-((5-chloro-2-((5-ethyl-2-methoxy-4-(4-morpholinopiperidin-1-yl)phenyl)amino)pyrimidin-4-yl)amino)-2,3-dimethoxyphenyl)-N-methylmethanesulfonamide]
- GI50 [1]: 79 nM
- GI50 [2]: 1920 nM
- GI50 [3]: 82 nM
- GI50 [4]: 191 nM
- GI50 [5]: 46 nM
- GI50 [6]: 176 nM

Structure (SMILES): CCc1cc(Nc2ncc(Br)c(Nc3cccc(OC)c3N(C)S(C)(=O)=O)n2)c(OC)cc1N1CCC(N2CCN(C)CC2)CC1 [Example C7, N-(2-((5-bromo-2-((5-ethyl-2-methoxy-4-(4-(4-methylpiperazin-1-yl)piperidin-1-yl)phenyl)amino)pyrimidin-4-yl)amino)-6-methoxyphenyl)-N-methylmethane sulfonamide]
- GI50 [1]: 10 nM
- GI50 [2]: 534 nM
- GI50 [3]: 52 nM
- GI50 [4]: 24 nM
- GI50 [5]: 10 nM
- GI50 [6]: 6 nM

Structure (SMILES): COc1cc(N2CC3(CNC3)C2)ccc1Nc1ncc(Cl)c(Nc2ccc3nccnc3c2NS(C)(=O)=O)n1 [Example D7, N-(6-((5-chloro-2-((2-methoxy-4-(2,6-diazaspiro[3.3]heptan-2-yl)phenyl)amino)pyrimidin-4-yl)amino)quinoxalin-5-yl)methanesulfonamide]
- GI50 [2]: > 2000 nM
- GI50 [3]: > 2000 nM
- GI50 [4]: > 2000 nM
- GI50 [5]: > 2000 nM
- GI50 [6]: > 2000 nM

Structure (SMILES): CCc1cc(Nc2ncc(Cl)c(Nc3ccc4nccnc4c3N(C)S(C)(=O)=O)n2)c(OC)cc1N1CCC(N2CCN(C)CC2)CC1 [Example A38, N-(6-((5-chloro-2-((5-ethyl-2-methoxy-4-(4-(4-methylpiperazin-1-yl)piperidin-1-yl)phenyl)amino)pyrimidin-4-yl)amino)quinoxalin-5-yl)-N-methylmethanesulfonamide]
- GI50 [2]: 347 nM
- GI50 [3]: 18 nM
- GI50 [4]: 33 nM
- GI50 [5]: 5 nM
- GI50 [6]: 5 nM
